According to article PMC4226669, “Anti-cancer potency of tasquinimod is enhanced via albumin-binding facilitating increased uptake in the tumor microenvironment” (Oncotarget, 2014):

Key:
mouse albumin = target: T1, mouse albumin (Mus musculus, UniProt P07724); test: Equilibrium dialysis binding to mouse albumin; conditions: pH 7.4, equilibrium dialysis, read-out: equilibrium dissociation constant (Kd)
T1 construct: purchased Sigma
Method: To determine whether albumin is the tasquinimod binding protein in plasma, albumin was removed from human plasma using an albumin depletion kit (Thermo Scientific cat # 85160). The albumin depleted plasma was then tested for its protein binding as described above. The dissociation constant (kd) for tasquinimod binding was determined based upon equilibrium dialysis of a mixture of 4mg/ml of the species (i.e., human, bovine, and mouse) specific albumin obtained from Sigma with 2μM of ^14C-labeled tasquinimod in PBS pH 7.4 buffer using a 96-well equilibrium dialyzer™ (Harvard Apparatus, Holliston,MA).

[1] = Nadir plasma concentration after 5 days oral dosing in C57Bl/6J mice; assay type: in vivo, mouse; conditions: 5 mg/kg/day oral gavage, end of 5 days
Method: To determine whether this chronic 5 mg/kg/day oral dosing regimen produces similar blood concentrations in mice as obtained in human trials, intact adult male C57Bl/6J mice (n=4) were given ^14C- radiolabeled tasquinimod via oral gavage and then the plasma concentration of drug at the end of 5 days determined based upon radioactivity levels.

[2] = tested on: TRAMP-C2 mouse prostate cancer; test: TRAMP-C2 cancer growth and blood vessel density in syngeneic mice; assay type: in vivo; conditions: 5 mg/kg/day via the drinking water
From the text: Tasquinimod's oral potency is not restricted to human prostate cancer xenografts growing in immune-suppressed mice.
The source, history, and characteristics of the human prostate cancer cell lines (i.e., LNCaP, LAPC4, and CWR-22Rv1 and the human umbilical vascular endothelial cells (HUVEC) used, as well as cell culture conditions for their in vitro maintenance and the in vivo protocol for their xenografting into immune-deficient nude male mice are as described previously. The source, history, and characteristics of the TRAMP-C2 mouse prostate cancer line, as well as cell culture conditions for their in vitro maintenance and the in vivo protocol for their growth in intact adult male syngeneic C57Bl/6J are as described previously. All lines were mycoplasma negative using the MycoSensor PCR Assay kit (Agilent Technologies) and genetically authenticated within the last 6 months using short tandem repeat profiling conducted by the Johns Hopkins Genetic Resource Core Facility. The source, history, and characteristics of the CWR-RH human prostate cancer xenograft are as described previously. In vitro growth curves were determined as described. Animal studies were conducted according to animal protocol MO09M434 approved by Johns Hopkins Animal Care and Use Committee. […]

[3] = tested on: CWR-22Rv1 human prostate cancer xenografts; test: Dose-response growth inhibition of established CWR-22Rv1 xenografts (subcutaneous daily injection); assay type: in vivo, mouse; conditions: 20 days
Method: To confirm these in vitro results, mice were inoculated subcutaneously (SQ) with CWR-22Rv1 cells and remained untreated until the tumors grew to ~ 200 mm3 (i.e., ~ 200 mgs) and then they were randomly assigned to groups (n=10) which were injected SQ daily with 100 μl of propylene glycol vehicle only vs. vehicle delivering 0.1 or 1 mg/kg/day of either tasquinimod or its carboxamide-N-demethylated metabolite. Propylene glycol was used as vehicle due to the low water solubility of the carboxamide-N-demethylated metabolite. After 20 days of continuous treatment, the experiment was terminated and the total weight of each cancer determined and the results expressed both as average tumor weight in grams and as the ratio of the weight of the cancers in the treated vs. vehicle control animals (i.e., T/C ratio), Figure 5A.
The source, history, and characteristics of the human prostate cancer cell lines (i.e., LNCaP, LAPC4, and CWR-22Rv1 and the human umbilical vascular endothelial cells (HUVEC) used, as well as cell culture conditions for their in vitro maintenance and the in vivo protocol for their xenografting into immune-deficient nude male mice are as described previously. The source, history, and characteristics of the TRAMP-C2 mouse prostate cancer line, as well as cell culture conditions for their in vitro maintenance and the in vivo protocol for their growth in intact adult male syngeneic C57Bl/6J are as described previously. All lines were mycoplasma negative using the MycoSensor PCR Assay kit (Agilent Technologies) and genetically authenticated within the last 6 months using short tandem repeat profiling conducted by the Johns Hopkins Genetic Resource Core Facility. The source, history, and characteristics of the CWR-RH human prostate cancer xenograft are as described previously. In vitro growth curves were determined as described. Animal studies were conducted according to animal protocol MO09M434 approved by Johns Hopkins Animal Care and Use Committee. Daily drug dosing via oral gavage, the drinking water, or subcutaneous injection, as well as tumor volume measurements and determination of the blood vessel density within cancers, were as described previously. These experiments were repeated at 3 independent times for each xenograft.

T1 sequence (P07724 25-608): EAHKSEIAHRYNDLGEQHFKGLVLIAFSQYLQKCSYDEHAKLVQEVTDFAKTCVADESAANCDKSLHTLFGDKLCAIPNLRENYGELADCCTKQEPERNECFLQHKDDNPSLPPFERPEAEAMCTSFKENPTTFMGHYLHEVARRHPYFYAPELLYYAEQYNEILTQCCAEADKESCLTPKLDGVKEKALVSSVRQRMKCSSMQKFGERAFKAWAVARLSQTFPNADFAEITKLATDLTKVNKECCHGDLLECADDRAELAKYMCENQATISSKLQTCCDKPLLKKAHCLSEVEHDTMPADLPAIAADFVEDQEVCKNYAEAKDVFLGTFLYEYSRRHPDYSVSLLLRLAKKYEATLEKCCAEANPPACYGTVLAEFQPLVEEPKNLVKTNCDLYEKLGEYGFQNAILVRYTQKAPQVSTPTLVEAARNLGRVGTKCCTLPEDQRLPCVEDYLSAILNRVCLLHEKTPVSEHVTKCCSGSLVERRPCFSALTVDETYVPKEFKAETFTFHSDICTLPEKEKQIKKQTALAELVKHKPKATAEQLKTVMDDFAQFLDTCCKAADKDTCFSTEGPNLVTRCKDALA

Compound: COc1cccc2c1c(O)c(C(=O)N(C)c1ccc(C(F)(F)F)cc1)c(=O)n2C [Tasquinimod]
- Kd (mouse albumin): 16 ± 3 µM
- nadir plasma concentration [1]: 1.08 ± 0.21 µM
- inhibition of TRAMP-C2 mouse prostate cancer growth ([2]; immune-competent syngeneic mice): > 80%
- inhibition of blood vessel density within the TRAMP-C2 cancers ([2]; treated vs. control): 75 ± 9%
- Avg Tumor Weight ([3]; 0.1 mg/kg/day SQ): 0.855 ± 0.203 g
- T/C Ratio ([3]; 0.1 mg/kg/day SQ): 0.491
- Avg Tumor Weight ([3]; 1 mg/kg/day SQ): 0.668 ± 0.166 g
- T/C Ratio ([3]; 1 mg/kg/day SQ): 0.383
- potency on an equal dose basis vs carboxamide-N-demethylated metabolite ([3]; 0.1 or 1 mg/kg/day SQ): equipotent
